Assays:
[1] = system: PSCA-expressing C42B prostate cancer cells; assay: IFNγ ELISA of co-culture supernatants; format: cell-based, human
Procedure: IFNγ ELISA of co-culture supernatants of C4-2B-PSCA cells exposed to media (negative control) or the indicated T cells, in presence of increasing concentrations of Zol (0, 0.4 and 0.8 μM).
Four variants of the anti-PSCA CAR were generated containing either CD27 (CD27z), CD28 (CD28z), or 4-1BB (BBz) costimulation. The fourth variant contains a CD27 costimulatory domain where the TRAF-binding site has been replaced with an inert flexible linker (G4S). γδ CAR-T cells expressing either CAR variant (or GFP as controls) were generated, and cocultured with PSCA-expressing C42B prostate cancer cells, in presence or absence of zoledronate, at the indicated doses. The presence of interferon-γ in the supernatants (measured by ELISA) was used as a marker of T cell activation. CAR-expressing T cells (but not untransduced or GFP-transduced cells) reacted to target cells by producing interferon-γ (solid bars).
γδ CAR-T cells recognize tumor cells via CAR and via TCR. The CAR- and TCR-mediated mechanisms of tumor cell recognition were tested using the CRPC C4-2BPSCA cell line. Cancer cells were treated with either untransduced (UT) control or CAR-expressing γδ T-cells, in the presence or absence of ZOL (0.4 μM). In presence of ZOL, control γδ T cells induced a cytotoxic effect at approx. 18 h, reflecting recognition of C4-2B-PSCA cells via TCR. […] The ability to induce a potent cytolytic effect with lesser cytokine production that can be modulated by ZOL is important since it may allow γδ (CAR−)T-cells to mediate more precise tumor killing, reducing the risk for complications related to massive cytokine release.

[2] = system: C4-2B luciferase expressing cells; assay: Intratibial C4-2B bone metastatic CRPC model with human γδ T-cells, zoledronate or vehicle; format: in vivo, NSG mice; conditions: for Percentage of CD3Vd2 positive cells in flushed tibias, higher than control: zoledronate 0.1 mg/Kg
Description: FIGS. 7A to 7D show C4-2B cells inoculated into NSG mice and treated with either zoledronate (ZOL) or vehicle control. After establishment and randomization mice ([…]) were inoculated with 3.5×10^6 […]. Subsets of mice were removed from the study at 1, 3 and 5 days late. […] Number illustrate the percentage of γδ T-cells in the total marrow analysis over time. […] FIG. 7C is a graph showing RLUs quantitated over time and the growth rates calculated for each group. Asterisk indicates statistical significance. Mice at the final time point were assessed for γδ T-cell localization (CD3), apoptosis (cleaved caspase-3; CC3) and proliferation (phospho histone H3; pHH3). […] Arrows indicate positivity. DAPI was used as a nuclear counterstain.
Next, the anti-tumor activity of γδ T-cells on established bone metastatic CRPC lesions in vivo was assessed. NSG (NOD.Cg-Prkdcscid112rgtm1Wjl/SzJ) immunocompromised mice were intratibially inoculated with C4-2B luciferase expressing cells (1×10^5) and once established were randomized in zoledronate (0.1 mg/Kg) or vehicle (saline) groups (n=25 per group) based on relative luminescence unit (RLU) measurement. One week later, mice received tail vein injections of human γδ T-cells (3.5×10^6/mouse).
Groups of mice (n=5) were removed from the study 1, 3, 5 days subsequent to injection with tibias being flushed and assessed for human CD3 Vd2 content by flow cytometry. […] Bioluminescence was used as a correlate of tumor growth.

[3] = system: γδ (CAR)-T cells; assay: IL-2 secretion by γδ (CAR)-T cells; format: cell-based
[4] = system: C4-2B-PSCA cells; assay: RTCA cytotoxicity assay of γδ T-cells; format: cell-based, human
Procedure: Summary of RTCA analysis of C4-2B-PSCA, or control PSCA null C4-2B, cells co-cultured with γδ CAR-T cells, or untransduced controls (UT). FIGS. […] show tumor cells without ZOL pretreatment. FIGS. 6C and 6D show tumor cells with 2 h ZOL pretreatment. FIGS. 6A and 6C show tumor cell viability 2 h post co-culture. FIGS. 6B and 6D show 30 h post co-culture.
The CAR- and TCR-mediated mechanism of tumor cell recognition were tested using the CRPC C4-2B cell line.

[5] = system: T47D breast cancer cells; assay: IPP production in response to zoledronate, LC-MS/MS of cell extracts; format: cell-based
Procedure: (§1) Following treatment of tumor cells with ZOL, IPP was measured in cell extracts by tandem LC-MS/MS, using AppCp as an internal standard. […] ZOL treatment was administered for 1 h or 18 h, at 2 different doses: 10 μM or 25 μM.
(§2) In order to verify that zoledronate effectively induces IPP accumulation in a model system, C4-2B-PSCA-Luc human CRPC prostate cancer cells were treated with 10 μM or 25 μM of zoledronate, for 1 h or 18 h. Intracellular IPP levels were measured using a semi-quantitative mass spectrometry assay. T47D breast cancer cells were used as positive control, and Panc02.03 pancreatic cancer cells were used as negative controls.

[6] = system: Panc02.03 pancreatic cancer cells; assay: as above; format: cell-based; conditions: Panc02.03 cells, prolonged treatment with high doses
Procedure: as §1, §2

[7] = system: C4-2B-PSCA-Luc human CRPC prostate cancer cells; assay: as above; format: cell-based; conditions: C4-2B-PSCA-Luc cells, 10 μM or 25 μM, 1 h or 18 h
Procedure: as §1, §2

[8] = coculture with PSCA-expressing C42B cells
[9] = study endpoint, compared to control

## O=P(O)(O)C(O)(Cn1ccnc1)P(=O)(O)O [zoledronate]
[1]; coculture of γδ (CAR−)T-cells with C4-2BPSCA cells, Zol 0, 0.4 and 0.8 μM
  Effect of ZOL on IFNγ secretion: enhanced IFNγ secretion
[1]; [8]
  Effect of zoledronate on interferon production by γδ CAR-T cells: enhanced interferon production
  Effect of zoledronate on target recognition by GFP-transduced and untransduced γδ T cells: induced target recognition
[1]; αβ T cells with C4-2BPSCA cells
  Effect of ZOL on IFNγ secretion: not observed
[2]; Day 1 after γδ T-cell injection
  Percentage of CD3Vd2 positive cells in flushed tibias, higher than control: > 61%
[2]; Day 3 after γδ T-cell injection
  Percentage of CD3Vd2 positive cells in flushed tibias, higher than control: > 32%
[2]; Day 5 after γδ T-cell injection
  Percentage of CD3Vd2 positive cells in flushed tibias, higher than control: > 57%
[2]; [9]
  Apoptotic (cleaved caspase-3) cancer cells, tibia histology: increased apoptotic
  Proliferative (phospo-Histone H3) cancer cells, tibia histology: decreased proliferative
[2]; zoledronate group compared to controls, all with γδ T-cells
  C4-2B growth rate (bioluminescence): significantly slower
[3]
  Effect of zoledronate on IL-2 secretion by γδ (CAR)-T cells: increases IL-2 secretion
[4]
  Time at which control (untransduced) γδ T cells induced a cytotoxic effect: approx. 18 h
[4]; ZOL 0.4 μM
  Effect of ZOL on cytolytic activity of γδ CAR-T: greatly enhanced
[5]; 1 h, high-dose zoledronate (doses 10 μM or 25 μM)
  Intracellular IPP levels: detectable over background
[5]; 18 h, both doses (10 μM or 25 μM)
  Intracellular IPP levels: detectable over background
[6]
  Intracellular IPP levels: did not produce IPP
[7]
  Intracellular IPP levels: produced high levels of IPP
